Laboratory results published in US4971990A, “Phenoxyethylamine derivatives, for preparing the same and composition for exhibiting excellent α1 -blocking activity containing the same” (Hokuriku Pharmaceutical Co., Ltd., priority 1988, dated 1990).
Counter-ions that a name gives are not always drawn. Like-named read-outs stand apart in the source and are kept apart here.

Columns and labels:
α1-adrenoceptor = α1-adrenoceptor blocking action (noradrenaline concentration-response in isolated thoracic aorta); type: cell-based, rabbit (Japanese white, male); conditions: for pA2 value: negative logarithm of KB (M), noradrenaline as agonist, rabbit thoracic aorta, 30 min exposure, 10^-6 M propranolol; for α1-adrenoceptor selectivity 10^(pA2-pKi): α1-adrenoceptors (pA2, rabbit aorta) compared to dopamine D2-receptors (pKi, rat striatum)
Procedure: α1 -adrenoceptor blocking action
Method: The thoracic aorta were isolated from male rabbits (Japanese white, about 2.5 kg b.w.) and helically cut. The preparations were suspended in Krebs-Henseleit solution maintained at 37° C. and aerated with a gas mixture of 95%O2 +5%CO2. Responses to drugs were recorded isometrically under a tension of 2 g. After an equilibration period of about 60 min., cumulative concentration-response curves for noradrenaline were constructed. The preparations were exposed to the test compounds for 30 min. before rechallenge with noradrenaline. The dose ratio was obtained from the ratio of an ED50 value (the concentration needs to produce the half maximum response) of noradrenaline in the presence and absence of the test compound. The test compounds dissociation constants (KB) were determined according to the following equation.
KB =[concentration of the test compound (M)/(dose ratio-1)]
The pA2 values were then expressed as the negative logarithm of KB.
This value represents the blocking activity of a test compound to α1 -adrenoceptors. In these experimental periods, 10^-6 M propranolol was treated to block β-adrenoceptors. The results shown in Table 1-a indicate that the α1 -adrenoceptor blocking activites of the test compounds are almost the as same as that of YM-12617.
The selectivity of the test compound to α1 -adrenoceptors compared to dopamine D2 -receptors is determined according to the following equation.
α1 -adrenoceptor selectivity =10^(pA 2^-pK i^)

dopamine D2-receptor = molecular target: T1, dopamine D2-receptor (Rattus norvegicus, UniProt P61169); test: Dopamine D2-receptor radioligand-binding assay (3H-spiperone, brain striatum membranes); set-up: species or system rat (male Wistar)
T1 construct: The homogenates were centrifuged and synaptic membrane fractions were obtained; from tissue; host or cells: brain striatum, synaptic membrane fraction, male Wistar rat
T1 sequence (P61169 whole entry): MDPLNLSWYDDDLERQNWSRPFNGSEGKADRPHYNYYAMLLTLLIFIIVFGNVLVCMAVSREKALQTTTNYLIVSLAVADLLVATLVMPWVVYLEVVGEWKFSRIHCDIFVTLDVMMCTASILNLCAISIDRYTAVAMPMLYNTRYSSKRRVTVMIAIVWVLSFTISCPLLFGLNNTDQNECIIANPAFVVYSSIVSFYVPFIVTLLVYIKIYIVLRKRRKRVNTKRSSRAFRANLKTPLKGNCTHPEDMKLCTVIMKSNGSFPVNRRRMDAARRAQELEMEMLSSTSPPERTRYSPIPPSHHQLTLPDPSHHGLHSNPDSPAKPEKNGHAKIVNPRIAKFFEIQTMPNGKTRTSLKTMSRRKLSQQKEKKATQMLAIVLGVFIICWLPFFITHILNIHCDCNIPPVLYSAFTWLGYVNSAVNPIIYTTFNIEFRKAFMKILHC
Procedure: Dopamine D2 -receptor radioligand-binding assay
Method: These experiments were done according to the method of Coward, D et al. (Naunyn-Schmiedeberg's Archives of Pharmacology (1987)335, 115-122). Briefly, brain striatum were isolated from male Wistar rats (about 200 g b.w.). The tissues were homogenaized in ice-cold 50 mM Tris buffer (pH7.4) with a polytron and centrifuged at 50,000 g for 15 min.. The pellets were homogenaized in the same Tris buffer and incubated for 5 min. at 37° C. The homogenates were centrifuged and synaptic membrane fractions were obtained. The membrane fractions were incubated with ^3 H-spiperone and various concentrations of the test compounds for 50 min. at 25° C. The reaction was terminated by filtration on a GF/B glass filter under vacuum. The radioactivity on the filter was measured using a liquid scintillation counter. The test compounds' dissociation constants (Ki) were determined according to the following equation.
IC50 : the test compound concentration needed to inhibit 50% of ^3 H-spiperone binding calculated by pseudo-Hill plot.
L : ^3 H-spiperone concentration
Kd : ^3 H-spiperone dissociation constant calculated by Scatchard plot.
The pKi values was then expressed as the negative logarithum of Ki. This value represents an affinity of the test compound to dopamine D2 -receptors. Non-specific binding of ^3 H-spiperone was determined in the presence of 10^-5 M sulpiride. Protein concentration was determined by the method of Lowry.

[1] = 3H-spiperone, rat striatum synaptic membranes, 50 min at 25° C., non-specific binding with 10^-5 M sulpiride, read-out: pKi value (converted)

Compound | pA2 value (α1-adrenoceptor) | Ki (dopamine D2-receptor) | Ki (dopamine D2-receptor; [1]) | α1-adrenoceptor selectivity 10^(pA2-pKi) (α1-adrenoceptor)
CCNS(=O)(=O)c1cc(CC(C)NCCOc2cc(F)ccc2OC)ccc1OC (stereo not drawn) [Example 21, N-Ethyl-5-[2-(5-fluoro-2-methoxyphenoxy)ethylamino]propyl]-2-methoxy-benzenesulfonamide oxalate] | 9.14 | 93.3 nM | – | –
CCCCNS(=O)(=O)c1cc(CC(C)NCCOc2cc(F)ccc2OC)ccc1OC.O=C(O)C(=O)O (stereo not drawn) [Example 22, N-Butyl-5-[2-[2-(5-fluoro-2-methoxyphenoxy)ethylamino]propyl]-2-methoxybenzenesulfonamide oxalate] | 9.08 | 77.6 nM | – | –
CCCNS(=O)(=O)c1cc(CC(C)NCCOc2cc(F)ccc2OC)ccc1OC (stereo not drawn) [Example 20, 5-[2[2-(5-Fluoro-2-methoxyphenoxy)ethylamino]propyl]-2-methoxy-N-propylbenzenesulfonamide 1/2fumarate] | 9.10 | – | 129 nM | –
CCOc1ccccc1OCCNC(C)Cc1ccc(OC)c(S(N)(=O)=O)c1 (racemic) [YM-12617, 5-[2-[[2-(2-ethoxyphenoxy)ethyl]amino]propyl]-2-methoxybenzene-sulfonamidehydrochloride, reference compound] | 9.38 | – | 20.9 nM | 50
COc1ccc(F)cc1OCCN[C@H](C)Cc1ccc(OC)c(S(N)(=O)=O)c1.Cl [Example 34, R-(-)-5-[2-[2-(5-Fluoro-2-methoxyphenoxy)-ethylamino]propyl]-2-methoxybenzenesulfonamide hydrochloride] | 9.77 | 74.1 nM | – | 437
COc1ccc(F)cc1OCCNC(C)Cc1ccc(OC)c(S(=O)(=O)N2CCCCC2)c1 (stereo not drawn) [Example 12, 1-[[5-[2-[2-(5-Fluoro-2-methoxyphenoxy)ethylamino]propyl]-2-methoxyphenyl]sulfonyl]-methoxyphenyl]sulfonyl]piperidine oxalate] | 9.10 | 89.1 nM | – | –
CNS(=O)(=O)c1cc(CC(C)NCCOc2cc(F)ccc2OC)ccc1OC.O=C(O)C(=O)O (stereo not drawn) [Example 9, 5-[2-[2-(5-Fluoro-2-methoxyphenoxy)ethylamino]propyl]-2-methoxy-N-methylbenzenesulfonamide oxalate] | 9.34 | 93.3 nM | – | –
COc1ccc(F)cc1OCCNC(C)Cc1ccc(OC)c(S(=O)(=O)N2CCCC2)c1.O=C(O)C(=O)O (stereo not drawn) [Example 11, 1-[[5-[2-[2-(5-Fluoro-2-methoxyphenoxy)ethylamino]propyl]-2methoxyphenyl]sulfonyl]pyrrolidine oxalate] | 9.33 | 64.6 nM | – | –
CCOc1ccc(F)cc1OCCNC(C)Cc1ccc(OC)c(S(N)(=O)=O)c1.Cl (stereo not drawn) [Example 14, 5-[2-[2-(2-Ethoxy-5-fluorophenoxy)ethylamino]propyl]-2-methoxybenzenesulfonamide hydrochloride] | 9.69 | 23.4 nM | – | 115
COc1ccc(F)cc1OCCNC(C)Cc1ccc(OC)c(S(=O)(=O)N(C)C)c1 (stereo not drawn) [Example 10, 5-[2-[2-(5-Fluoro-2-methoxyphenoxy)ethylamino]propy]-2-methoxy-N,N-dimethylbenzenesulfonamide oxalate] | 9.42 | – | 110 nM | 288
CCOc1ccc(CC(C)NCCOc2cc(F)ccc2OC)cc1S(N)(=O)=O (stereo not drawn) [Example 2, 2-Ethoxy-5-[2-[2-(5-fluoro-2-methoxyphenoxy)ethylamino]propyl] benzenesulfonamide hydrochloride] | 9.05 | – | 166 nM | 186
CCOc1ccc(F)cc1OCCNC(C)Cc1ccc(OCC)c(S(N)(=O)=O)c1 (stereo not drawn) [Example 5, 2-Ethoxy-5-[2-[2-(2-ethoxy-5-fluorophenoxy)ethylamino]propyl] benzenesulfonamide hydrochloride] | 8.98 | 83.2 nM | – | 79
CCOc1ccc(F)cc1OCCNC(C)Cc1ccc(OC)c(S(=O)(=O)N(C)C)c1.O=C(O)C(=O)O (stereo not drawn) [Example 15, 5-[2-[2-(2-Ethoxy-5-fluorophenoxy)ethylamino]propyl]-2-methoxy-N,N-dimethylbenzenesulfonamide oxalate] | 9.48 | 25.7 nM | – | 78
COc1ccc(F)cc1OCCNC(C)Cc1ccc(OC)c(S(N)(=O)=O)c1 (stereo not drawn) [Example 1, 5-[2-[2-(5-Fluoro-2-methoxyphenoxy)ehtylamino]propyl]-2-methoxybenzenesulfonamide hydrochloride] | 9.45 | – | 120 nM | 339
